Results from ChEMBL document CHEMBL1201862, “PubChem BioAssay data set” (2004).
Active and inactive are the calls of the source.

Legend:
[1] = molecular target: T1, Lysine-specific demethylase 4C (Homo sapiens, UniProt Q9H3R0); assay: GASC-1 (JMJD2C) histone demethylase inhibitors, dose response, biochemical, DELFIA europium, cherry-picked samples (AID 488835); assay type: functional
T1 sequence (Q9H3R0 whole entry): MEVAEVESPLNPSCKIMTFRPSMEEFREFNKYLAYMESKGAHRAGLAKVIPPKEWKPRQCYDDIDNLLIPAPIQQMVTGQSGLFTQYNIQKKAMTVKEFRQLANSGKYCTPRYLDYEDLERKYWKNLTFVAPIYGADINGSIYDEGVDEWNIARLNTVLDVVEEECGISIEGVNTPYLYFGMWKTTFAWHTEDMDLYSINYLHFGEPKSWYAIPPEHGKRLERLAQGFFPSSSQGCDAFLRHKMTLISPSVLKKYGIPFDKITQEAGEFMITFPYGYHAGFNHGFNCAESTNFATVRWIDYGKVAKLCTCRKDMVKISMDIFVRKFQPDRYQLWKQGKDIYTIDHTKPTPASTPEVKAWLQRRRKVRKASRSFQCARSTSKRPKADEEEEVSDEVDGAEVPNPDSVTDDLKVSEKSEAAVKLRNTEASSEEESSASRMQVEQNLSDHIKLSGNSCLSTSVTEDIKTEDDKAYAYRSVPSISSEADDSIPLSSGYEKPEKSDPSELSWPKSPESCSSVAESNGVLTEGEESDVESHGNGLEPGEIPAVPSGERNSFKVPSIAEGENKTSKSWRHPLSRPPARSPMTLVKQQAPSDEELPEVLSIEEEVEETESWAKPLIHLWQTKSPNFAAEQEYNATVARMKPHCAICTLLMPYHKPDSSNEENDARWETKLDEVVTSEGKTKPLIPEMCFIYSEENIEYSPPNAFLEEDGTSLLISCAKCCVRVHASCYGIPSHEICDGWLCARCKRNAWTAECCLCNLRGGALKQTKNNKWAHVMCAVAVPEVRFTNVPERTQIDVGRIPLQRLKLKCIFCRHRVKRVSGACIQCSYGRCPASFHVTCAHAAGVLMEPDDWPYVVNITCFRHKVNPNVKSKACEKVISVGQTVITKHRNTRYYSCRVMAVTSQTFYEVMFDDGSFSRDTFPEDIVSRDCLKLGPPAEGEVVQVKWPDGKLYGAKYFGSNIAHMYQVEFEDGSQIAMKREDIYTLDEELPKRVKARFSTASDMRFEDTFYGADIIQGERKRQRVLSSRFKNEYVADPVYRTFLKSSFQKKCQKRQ

H9c2 = assay: cells; assay type: functional, cell-based; conditions: Rattus norvegicus, H9c2, Myocardium;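 further: confirmatory concentration-response retest of ultra-high-throughput screening hits for modulation of myocardial damage; cell death induced by hydrogen peroxide oxidative stress; compound pretreatment for 60 min then peroxide exposure for 2 h; potency is for protecting the cells against peroxide damage rather than for killing them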
SUMO E1/E2 = SUMO E1/E2 (Homo sapiens, UniProt P63279+Q9UBE0+Q9UBT2); assay: SAR analysis of SUMOylation using HTRF in an in-Vitro dose response assay. [Related pubchem assays (depositor defined):AID2006, AID2011, AID2018, AID2069, AID2658]; assay type: functional
Chain of SUMO E1/E2 (Q9UBE0 whole entry): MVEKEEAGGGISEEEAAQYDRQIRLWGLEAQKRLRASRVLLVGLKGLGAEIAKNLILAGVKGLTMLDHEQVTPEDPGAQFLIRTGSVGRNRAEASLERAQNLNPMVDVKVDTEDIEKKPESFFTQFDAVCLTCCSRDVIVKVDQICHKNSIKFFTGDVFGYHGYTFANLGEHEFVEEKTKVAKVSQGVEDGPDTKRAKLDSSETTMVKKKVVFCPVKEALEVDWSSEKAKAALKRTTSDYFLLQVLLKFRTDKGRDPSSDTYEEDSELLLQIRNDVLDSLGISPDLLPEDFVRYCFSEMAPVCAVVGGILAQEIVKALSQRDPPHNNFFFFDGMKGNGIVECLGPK
Chain of SUMO E1/E2 (Q9UBT2 whole entry): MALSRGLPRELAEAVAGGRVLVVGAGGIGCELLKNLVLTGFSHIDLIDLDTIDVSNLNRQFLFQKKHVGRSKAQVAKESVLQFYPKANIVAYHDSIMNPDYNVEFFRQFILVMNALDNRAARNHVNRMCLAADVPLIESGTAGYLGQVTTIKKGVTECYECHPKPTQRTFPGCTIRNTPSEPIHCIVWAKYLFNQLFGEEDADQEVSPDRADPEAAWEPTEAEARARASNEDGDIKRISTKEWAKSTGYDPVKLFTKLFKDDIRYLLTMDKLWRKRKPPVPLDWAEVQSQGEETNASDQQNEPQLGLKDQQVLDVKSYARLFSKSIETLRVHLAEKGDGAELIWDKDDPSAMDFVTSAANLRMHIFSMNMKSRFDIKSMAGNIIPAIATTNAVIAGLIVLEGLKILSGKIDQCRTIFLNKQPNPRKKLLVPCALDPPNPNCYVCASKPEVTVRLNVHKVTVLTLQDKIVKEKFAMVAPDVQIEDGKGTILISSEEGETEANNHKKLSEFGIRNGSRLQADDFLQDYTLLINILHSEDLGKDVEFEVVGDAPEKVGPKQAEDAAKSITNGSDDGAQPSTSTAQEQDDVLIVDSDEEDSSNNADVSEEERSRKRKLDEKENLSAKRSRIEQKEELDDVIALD
Chain of SUMO E1/E2 (P63279 whole entry): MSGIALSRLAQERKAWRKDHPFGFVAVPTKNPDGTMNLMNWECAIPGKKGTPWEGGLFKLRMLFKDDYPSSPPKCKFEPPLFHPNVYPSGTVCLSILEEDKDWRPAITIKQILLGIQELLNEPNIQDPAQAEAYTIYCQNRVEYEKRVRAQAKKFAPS

[2] = molecular target: Glyceraldehyde-3-phosphate dehydrogenase (Homo sapiens, UniProt P04406)
Chain of Glyceraldehyde-3-phosphate dehydrogenase (P04406 whole entry): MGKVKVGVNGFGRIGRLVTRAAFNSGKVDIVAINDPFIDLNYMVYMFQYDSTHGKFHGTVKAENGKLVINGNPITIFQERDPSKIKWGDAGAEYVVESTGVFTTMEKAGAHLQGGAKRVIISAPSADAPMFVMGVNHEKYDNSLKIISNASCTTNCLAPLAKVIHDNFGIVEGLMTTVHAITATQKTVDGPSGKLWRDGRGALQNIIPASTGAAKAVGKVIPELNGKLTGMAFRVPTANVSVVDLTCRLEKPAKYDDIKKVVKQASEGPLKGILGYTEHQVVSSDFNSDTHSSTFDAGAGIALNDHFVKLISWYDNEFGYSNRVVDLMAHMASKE

[3] = molecular target: T2, Alkaline phosphatase, tissue-nonspecific isozyme (Homo sapiens, UniProt P05186); assay: human TNAP enzyme inhibitors, SAR follow-up, biochemical, luminescent, dose response (AID 1056)
T2 sequence (P05186 whole entry): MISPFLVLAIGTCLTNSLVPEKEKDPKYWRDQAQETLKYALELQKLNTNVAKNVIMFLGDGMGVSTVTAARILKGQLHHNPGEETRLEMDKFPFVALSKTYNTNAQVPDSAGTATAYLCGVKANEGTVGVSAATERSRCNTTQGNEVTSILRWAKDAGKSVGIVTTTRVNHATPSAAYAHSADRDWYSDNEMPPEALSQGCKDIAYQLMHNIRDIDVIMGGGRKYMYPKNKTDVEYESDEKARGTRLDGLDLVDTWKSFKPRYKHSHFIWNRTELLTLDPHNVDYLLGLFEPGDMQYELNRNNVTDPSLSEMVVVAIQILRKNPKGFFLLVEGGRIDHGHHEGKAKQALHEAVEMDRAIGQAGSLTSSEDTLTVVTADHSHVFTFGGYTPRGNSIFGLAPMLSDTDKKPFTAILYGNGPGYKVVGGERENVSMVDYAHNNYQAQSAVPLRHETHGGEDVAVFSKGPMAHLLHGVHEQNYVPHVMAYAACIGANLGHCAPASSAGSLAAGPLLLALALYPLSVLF

[4] = inhibitors of intracellular T. cruzi replication, confirmation, NIH3T3 host cells, beta-gal luminescence (AID 2044); assay type: functional, cell-based;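 further: intracellular parasites grown in NIH/3T3 mouse fibroblasts as host cells; luminescent beta-galactosidase reporter signal from transgenic T. cruzi replicating inside host cells; inhibitors lower the luminescence signal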
[5] = cytotoxicity toward NIH3T3 fibroblasts, dose response, counter-screen, cell-based, ATP luminescence, mouse fibroblasts (AID 2010); assay type: functional;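 further: cells exposed to compound for about 90 hours before reading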
[6] = Luminescence Cell-Based Dose Retest to Confirm Inhibitors of Cancer Stem Cells. [Related pubchem assays (depositor defined):AID2717, AID2721]; assay type: functional; conditions: Homo sapiens
[7] = cytotoxicity in HMLE control line with eGFP shRNA, dose response, counter-screen for HMLE_sh_ECad selective toxicity project, cell-based, HMLE_sh_eGFP, luminescence (AID 463074); assay type: functional, Homo sapiens;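 further: HMLE human mammary epithelial cells expressing control shRNA against eGFP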
Hexokinase HKDC1 = molecular target: T3, Hexokinase HKDC1 (Homo sapiens, UniProt Q2TB90); assay: HKDC1 hexokinase activators, dose response, biochemical, W721R variant (AID 504730); assay type: functional
T3 sequence (Q2TB90 whole entry): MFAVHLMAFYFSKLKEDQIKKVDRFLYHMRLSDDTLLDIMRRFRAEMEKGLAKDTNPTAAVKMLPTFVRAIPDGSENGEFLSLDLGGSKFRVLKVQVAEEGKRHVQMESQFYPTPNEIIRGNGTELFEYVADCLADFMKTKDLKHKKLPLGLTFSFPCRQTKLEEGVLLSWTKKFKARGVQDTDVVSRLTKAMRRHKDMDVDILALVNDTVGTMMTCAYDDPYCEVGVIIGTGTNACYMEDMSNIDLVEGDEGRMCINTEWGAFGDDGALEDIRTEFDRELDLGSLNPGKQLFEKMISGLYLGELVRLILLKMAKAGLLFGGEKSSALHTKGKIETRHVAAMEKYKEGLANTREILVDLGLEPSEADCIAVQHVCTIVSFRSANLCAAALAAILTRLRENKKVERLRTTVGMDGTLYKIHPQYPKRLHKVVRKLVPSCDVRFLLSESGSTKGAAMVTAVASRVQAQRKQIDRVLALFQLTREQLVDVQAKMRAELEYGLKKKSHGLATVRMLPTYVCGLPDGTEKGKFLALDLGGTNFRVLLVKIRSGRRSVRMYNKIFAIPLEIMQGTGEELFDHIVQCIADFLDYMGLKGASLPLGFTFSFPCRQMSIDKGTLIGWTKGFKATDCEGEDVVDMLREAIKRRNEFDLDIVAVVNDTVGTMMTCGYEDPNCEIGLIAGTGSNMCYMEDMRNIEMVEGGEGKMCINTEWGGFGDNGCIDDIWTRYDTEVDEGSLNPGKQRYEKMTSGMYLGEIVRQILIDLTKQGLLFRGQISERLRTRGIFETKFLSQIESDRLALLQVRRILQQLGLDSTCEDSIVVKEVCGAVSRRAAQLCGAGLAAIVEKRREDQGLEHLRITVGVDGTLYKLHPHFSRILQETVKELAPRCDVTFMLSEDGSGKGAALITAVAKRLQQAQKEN

Nonstructural protein 1 = Nonstructural protein 1 (Influenza A virus, UniProt Q194T2); assay type: functional, Influenza A virus (A/California/07/2009(H1N1))
Chain of Nonstructural protein 1 (Q194T2 whole entry): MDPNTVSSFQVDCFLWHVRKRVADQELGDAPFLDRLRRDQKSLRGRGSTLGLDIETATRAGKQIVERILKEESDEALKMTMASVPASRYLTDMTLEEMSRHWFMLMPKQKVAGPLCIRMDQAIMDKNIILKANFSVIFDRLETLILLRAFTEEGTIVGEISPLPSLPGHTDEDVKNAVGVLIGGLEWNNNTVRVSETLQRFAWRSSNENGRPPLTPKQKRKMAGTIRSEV

Hexokinase-1 = molecular target: T4, Hexokinase-1 (Homo sapiens, UniProt P19367); assay: hexokinase 1 activators, dose response, selectivity assay for HKDC1 activator project, biochemical (AID 504762); assay type: functional
T4 sequence (P19367 whole entry): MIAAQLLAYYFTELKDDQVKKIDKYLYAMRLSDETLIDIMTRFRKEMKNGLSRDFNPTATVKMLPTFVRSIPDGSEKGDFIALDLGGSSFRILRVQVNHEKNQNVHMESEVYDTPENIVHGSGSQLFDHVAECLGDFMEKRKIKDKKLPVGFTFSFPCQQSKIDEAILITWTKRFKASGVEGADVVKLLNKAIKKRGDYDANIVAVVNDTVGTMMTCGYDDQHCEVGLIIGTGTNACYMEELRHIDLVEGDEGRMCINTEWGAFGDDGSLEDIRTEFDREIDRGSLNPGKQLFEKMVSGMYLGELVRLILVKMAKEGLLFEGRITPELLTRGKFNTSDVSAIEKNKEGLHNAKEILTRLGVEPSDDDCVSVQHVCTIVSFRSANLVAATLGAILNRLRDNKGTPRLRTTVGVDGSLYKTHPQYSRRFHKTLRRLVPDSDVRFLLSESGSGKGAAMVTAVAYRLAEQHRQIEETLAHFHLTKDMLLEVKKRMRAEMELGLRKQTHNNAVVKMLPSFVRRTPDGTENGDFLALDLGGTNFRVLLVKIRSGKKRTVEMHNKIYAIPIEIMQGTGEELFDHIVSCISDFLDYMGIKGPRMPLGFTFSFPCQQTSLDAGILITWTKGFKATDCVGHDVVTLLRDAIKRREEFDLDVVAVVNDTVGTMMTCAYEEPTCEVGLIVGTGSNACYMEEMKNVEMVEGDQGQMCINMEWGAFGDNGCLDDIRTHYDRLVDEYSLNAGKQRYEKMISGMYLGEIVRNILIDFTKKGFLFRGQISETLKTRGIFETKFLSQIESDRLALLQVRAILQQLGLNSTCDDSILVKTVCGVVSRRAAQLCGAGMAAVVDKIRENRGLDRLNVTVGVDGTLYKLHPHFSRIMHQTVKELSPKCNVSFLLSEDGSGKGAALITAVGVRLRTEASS

[8] = molecular target: Heat shock protein HSP 90-alpha (Homo sapiens, UniProt P07900); assay type: functional, organism-based
[9] = molecular target: T5, Ubiquitin-conjugating enzyme E2 N (Homo sapiens, UniProt P61088); assay type: functional;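 further: Dose-response confirmation in a TR-FRET assay detecting UBC13-driven polyubiquitin chain formation, inhibition measured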
T5 sequence (P61088 whole entry): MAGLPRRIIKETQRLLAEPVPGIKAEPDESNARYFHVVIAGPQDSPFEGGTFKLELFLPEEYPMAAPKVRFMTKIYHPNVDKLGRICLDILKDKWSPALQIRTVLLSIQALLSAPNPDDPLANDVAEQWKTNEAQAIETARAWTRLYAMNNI

[10] = molecular target: Intestinal-type alkaline phosphatase (Mus musculus, UniProt P24822); assay: PubChem AID 488785; assay type: functional
Chain of Intestinal-type alkaline phosphatase (Mus musculus, UniProt P24822) (P24822 whole entry): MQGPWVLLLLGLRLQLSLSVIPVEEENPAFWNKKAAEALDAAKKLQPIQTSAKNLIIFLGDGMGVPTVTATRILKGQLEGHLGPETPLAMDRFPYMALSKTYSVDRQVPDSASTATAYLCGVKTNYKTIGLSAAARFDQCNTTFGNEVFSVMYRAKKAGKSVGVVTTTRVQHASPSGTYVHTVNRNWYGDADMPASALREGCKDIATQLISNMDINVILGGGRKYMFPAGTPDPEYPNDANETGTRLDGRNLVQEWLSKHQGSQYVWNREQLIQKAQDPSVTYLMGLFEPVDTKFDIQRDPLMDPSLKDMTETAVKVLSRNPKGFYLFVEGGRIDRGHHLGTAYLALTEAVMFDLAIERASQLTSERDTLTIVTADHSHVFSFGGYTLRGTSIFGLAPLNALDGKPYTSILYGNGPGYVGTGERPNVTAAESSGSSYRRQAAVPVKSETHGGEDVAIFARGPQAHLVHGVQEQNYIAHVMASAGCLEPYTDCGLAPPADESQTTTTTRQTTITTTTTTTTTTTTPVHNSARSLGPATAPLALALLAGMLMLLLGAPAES

[11] = molecular target: T2, Alkaline phosphatase, tissue-nonspecific isozyme; assay: TNAP enzyme inhibition by screening hits, dose response, selectivity assay for mouse IAP inhibitor project, biochemical, human TNAP, uHTS hits (AID 488906); assay type: functional
[12] = molecular target: Intestinal-type alkaline phosphatase (Homo sapiens, UniProt P09923); assay: inhibition of human intestinal alkaline phosphatase – biochemical, dose response (AID 488876); assay type: functional
Chain of Intestinal-type alkaline phosphatase (Homo sapiens, UniProt P09923) (P09923 whole entry): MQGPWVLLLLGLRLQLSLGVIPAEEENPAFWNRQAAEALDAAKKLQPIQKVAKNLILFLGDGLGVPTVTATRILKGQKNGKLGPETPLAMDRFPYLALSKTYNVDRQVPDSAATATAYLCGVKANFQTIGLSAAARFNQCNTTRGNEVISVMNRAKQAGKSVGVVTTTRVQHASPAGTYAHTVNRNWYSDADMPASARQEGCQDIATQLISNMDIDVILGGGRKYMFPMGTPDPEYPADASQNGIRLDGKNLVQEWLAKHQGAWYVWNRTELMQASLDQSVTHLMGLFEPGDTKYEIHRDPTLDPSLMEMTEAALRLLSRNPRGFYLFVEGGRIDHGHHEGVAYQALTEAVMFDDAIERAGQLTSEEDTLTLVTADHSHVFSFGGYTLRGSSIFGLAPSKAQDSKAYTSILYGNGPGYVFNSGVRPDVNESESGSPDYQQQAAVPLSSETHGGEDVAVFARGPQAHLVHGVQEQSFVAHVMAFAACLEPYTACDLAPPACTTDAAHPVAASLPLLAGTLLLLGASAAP

[13] = molecular target: T6, Endoribonuclease toxin MazF (Escherichia coli K-12, UniProt P0AE70); assay: MazF toxin RNase activators, dose response, biochemical, fluorescence, single-stranded RNA substrate, uHTS hits (AID 588481); assay type: functional
T6 sequence (P0AE70 whole entry): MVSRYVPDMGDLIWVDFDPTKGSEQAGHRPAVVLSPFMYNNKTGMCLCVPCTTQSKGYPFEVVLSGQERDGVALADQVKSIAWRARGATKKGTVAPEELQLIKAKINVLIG

[14] = molecular target: T6, Endoribonuclease toxin MazF; assay: fluorescent RNA oligo signal without MazF, dose response, counter-screen for MazEF activator project, biochemical, fluorescence, single-stranded RNase substrate (AID 588502); assay type: functional
[15] = A549 cell cytotoxicity, dose response, cytotoxicity control, plate reader, cherry-pick, antagonist series (AID 743412); assay type: functional, cell-based
[16] = HepG2 cell cytotoxicity, dose response, cytotoxicity control, plate reader, cherry-pick, antagonist series (AID 743416); assay type: functional, cell-based
[17] = LGR2 antagonists, dose response, cell-based, HEK293, CRE-luciferase reporter, cherry pick, set 2 (AID 743343); assay type: functional;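 further: transfected cells were stimulated with diluted bursicon conditioned medium after compound addition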
[18] = MC4R antagonists, dose response, counter-screen for LGR2 antagonist project, cell-based, plate reader, cherry pick (AID 743444); assay type: functional;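 further: transfected HEK 293 cells stimulated with alpha-MSH peptide; potency of inhibitors of the alpha-MSH evoked signal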
[19] = HEK293 cell cytotoxicity, dose response, cytotoxicity control, plate reader, cherry-picked samples (AID 743446); assay type: functional, cell-based

COc1ccc(-c2nn3c(-c4ccco4)nnc3s2)cc1OC
AC50 [1]: 10.3 µM (active) | IC50 (H9c2): 11.2 µM (active)

O=C(O)c1ccc2c(c1)C1C=CCC1C(c1ccccc1)N2 (configuration not stated)
IC50 (SUMO E1/E2): > 100 µM (inactive)

CCOc1ccc(OCC)c(S(=O)(=O)Nc2cccnc2)c1
IC50 [2]: > 100 µM (not active) | IC50 [3]: 4.44 µM (active)

CN1C(=O)C(=Cc2ccc(N3CCCCCC3)cc2)C(=O)N(C)C1=O
AC50 [1]: 13.1 µM (active)

COc1ccc(C(=O)CCN2CCN(c3ccccc3F)CC2)cc1
EC50 [4]: 2.19 µM (active) | EC50 [5]: 7.83 µM (active) | AC50 [6]: 17.2 µM (active) | AC50 [7]: 35.3 µM (active)

C/C(=N\OCc1nc2ccccc2c(=O)n1/N=C/c1cc(Br)ccc1O)c1ccccc1
IC50 (SUMO E1/E2): 14.7 µM (active)

O=C(O)c1cc(-c2ccc(F)cc2)n[nH]1
IC50 [2]: > 100 µM (not active) | IC50 [3]: 4.74 µM (active)

CC(=NNC(=S)N1CC2CCC(CC2)C1)c1ccncn1
EC50 (Hexokinase HKDC1): 13.3 µM (active) | IC50 (Nonstructural protein 1): 3.98 µM (active) | EC50 (Hexokinase-1): > 80 µM (inactive) | AC50 [8]: 3.03 µM (active)

O=C(Nc1ccc(Cl)c(C(F)(F)F)c1)NC1CC2CCCC(C1)N2Cc1ccccc1 (configuration not stated)
AC50 [6]: 6.55 µM (active) | IC50 [9]: > 20 µM (inactive) | IC50 [10]: 11.2 µM (active) | IC50 [11]: > 100 µM (inactive) | IC50 [12]: > 100 µM (inactive) | EC50 [13]: > 99 µM (inactive) | EC50 [14]: > 99 µM (inactive) | AC50 [15]: 11.4 µM (active) | AC50 [16]: 12.6 µM (active) | AC50 [17]: 39 µM (active) | AC50 [18]: 33.5 µM (active) | AC50 [19]: 29.6 µM (active)

Cc1ccc(NC(=S)NCc2ccccc2)cc1S(=O)(=O)N1CCCCC1
IC50 [10]: 1.4 µM (active) | IC50 [11]: > 100 µM (inactive) | IC50 [12]: > 100 µM (inactive)
